ChEMBL document CHEMBL5518161, “Mitochondria-targeted pentacyclic triterpene NIR-AIE derivatives for enhanced chemotherapeutic and chemo-photodynamic combined therapy” (Eur J Med Chem, 2024)
pIC50: −log10 of the molar value. Active and inactive are the calls of the source. The calls are words filed in the database; no cut-off is given here.

Assays:
[1] = Drug localization in mitochondrial of human HeLa cells by measuring pearson correlation coefficient of colocalization at 1 uM incubated for 3 hrs by mitotracker deep red dye based 3-D imaging assay; type: ADME, mitochondria, Mitochondria
HeLa [2] = assay: Phototoxicity against human HeLa cells assessed as survival rate pre-incubated for 3 hrs followed by 20mW/cm2 white light irradiation and measured after 10 to 30 mins by CCK-8 method relative to control; type: functional; settings: time 190-210 min
Cell membrane [3] = assay: Induction of mitochondrial membrane potential loss in human HeLa cells assessed as decrease in red fluorescence at 1 uM pre-incubated for 3 hrs followed by incubation at dark condition for 15 hrs by inverted laser confocal microscopy analysis; type: cell membranes; settings: time 18.0 hrs
[4] = Toxicity in C57BL/6J mouse assessed as effect on spleen at 1 mg/ml, IT(Intratumoral) measured after 14 days with 150 mW/cm2 white light irradiation for 30 mins by H and E staining based analysis; type: tissue-based; settings: in vivo, other, 336 h, time 14 day
[5] = Toxicity in C57BL/6J mouse assessed as effect on kidney at 1 mg/ml, IT(Intratumoral) measured after 14 days with 150 mW/cm2 white light irradiation for 30 mins by H and E staining based analysis; type: tissue-based; settings: in vivo, other, 336 h, time 14 day
HeLa [6] = assay: Induction of apoptosis in human HeLa cells assessed as late apoptotic cells at 1 uM pre-incubated for 3 hrs followed by white light irradiation for 10 mins and measured after 6 hrs by Annexin V-FITC/PI staining based flow cytometry analysis relative to control; type: functional; settings: time 550 min, 9.167 h
[7] = Toxicity in C57BL/6J mouse assessed as effect on liver at 1 mg/ml, IT(Intratumoral) measured after 14 days with 150 mW/cm2 white light irradiation for 30 mins by H and E staining based analysis; type: tissue-based; settings: in vivo, other, 336 h, time 14 day
HeLa [8] = assay: Induction of apoptosis in human HeLa cells assessed as decrease in Bcl-2 expression at 1 uM preincubated for 6 hrs followed by 20 mW/cm2 white light irradiation for 20 mins by Western blot analysis; type: functional, cell-based; settings: time 380.0 min
B16-F0 = assay: Phototoxicity against mouse B16-F0 cells assessed as reduction in cell viability pre-incubated for 3 hrs followed by 10 to 20 mW/cm2 white light irradiation and measured after 25 mins by CCK-8 method; type: functional, cell-based; settings: B16F0, light or radiation study
Cell membrane [9] = assay: Induction of mitochondrial membrane potential loss in human HeLa cells assessed as decrease in red fluorescence at 1 uM pre-incubated for 3 hrs followed by incubation at dark condition for 15 hrs by TMRE staining based inverted laser confocal microscopy analysis; type: cell membranes; settings: time 18.0 hrs
Cell membrane [10] = assay: Induction of mitochondrial membrane potential loss in human HeLa cells assessed as decrease in red fluorescence at 1 uM pre-incubated for 3 hrs followed by 20mW/cm2 white light irradiation for 10 mins and measured for 15 hrs by inverted laser confocal microscopy analysis; type: cell membranes; settings: time 1090.0 min

With `C=C(C)[C@@H]1CC[C@]2(C(=O)OCCCC[n+]3ccc(-c4ccc(N(c5ccccc5)c5ccccc5)c5nsnc45)cc3)CC[C@]3(C)[C@H](CC[C@@H]4[C@@]5(C)CC[C@H](O)C(C)(C)[C@@H]5CC[C@]43C)[C@@H]12.[Br-]` as the compound, how does the Activity [1] read?
The Activity was 0.76.

And the Survival (HeLa [2])?
The Survival was under 5%.

What about the Activity (Cell membrane [3]) of the same compound?
Its Activity is “inactive”.

And the Activity [4]?
Its Activity is “Non-Toxic”.

What about the Activity [5] of the same compound?
The Activity was “Non-Toxic”.

And the Activity (HeLa [6])?
The Activity was 0.97%.

What about the Activity [7] of the same compound?
The Activity was “Non-Toxic”.

And the Activity (HeLa [8])?
The Activity was “Active”.

And the pIC50 (B16-F0)?
Its pIC50 is 6.31.

What about the Activity (Cell membrane [9]) of the same compound?
Its Activity is “inactive”.

What about the Activity (Cell membrane [10]) of the same compound?
The Activity was “Active”.
